Source: patent US20260274836A1, “NOVEL HEPATOSELECTIVE POLYADENYLATING POLYMERASES INHIBITORS AND THEIR METHOD OF USE” (Baruch S. Blumberg Institute, priority 2022, published 2026)

How the values were obtained:
[1] = in vitro; assay type: cell-based; conditions: human
Method: Assays for the anti-HAV activity of the hepatoselective DHQ compounds were carried out in Huh-7 human hepatoma cells using the 18f-NLuc reporter virus, which expresses nanoluciferase (NLuc) from sequence inserted into the polyprotein coding region of the HM175/18f HAV genome between the VP1pX and 2B coding sequences (Yamane et al., 2019). The method was modified minimally from that described by Misumi et al. for iminosugar compounds (Misumi et al., 2021). Cells (approximately […]) were plated in wells of a 96-well plate with Dulbecco's modified Eagle medium (DMEM) and 10% fetal bovine serum. The cells were inoculated 24 hrs later with 18f-NLuc virus (approximately 10^6-10^7 genome equivalents) in medium containing increasing concentrations of the compounds of interest. […] Luminescence was measured using a Biotek Synergy II multi-mode plate reader (BioTek Instruments). […] Cell toxicity of the compounds was assessed using the WST-1 Cell Proliferation Reagent (Sigma-Aldrich) at the end of the treatment period in parallel cultures of uninfected cells, with WST-1 reagent added to cultures for 1 hr prior to harvest and O.D. reading.
Additional exemplary compounds of the present invention are evaluated for anti-HAV activity in accordance with certain assays described hereinabove. […] Luminescence was measured using a Biotek Synergy II multi-mode plate reader (BioTek Instruments). […]

[2] = test system: 18f-NLuc reporter virus (HM175/18f HAV); assay: Antiviral activity against human hepatitis A virus, 18f-NLuc reporter virus in Huh-7 cells; assay type: cell-based, Human Hepatitis A Virus (Hepatovirus A); conditions: Hepatovirus A, Huh-7, 48 h, Huh-7 cells, 18f-NLuc virus, 48 hrs
Method: Assay for Antiviral Activity Against Human Hepatitis A Virus (Hepatovirus A).
(§1) Assays for the anti-HAV activity of the hepatoselective DHQ compounds were carried out in Huh-7 human hepatoma cells using the 18f-NLuc reporter virus, which expresses nanoluciferase (NLuc) from sequence inserted into the polyprotein coding region of the HM175/18f HAV genome between the VP1pX and 2B coding sequences (Yamane et al., 2019). The method was modified minimally from that described by Misumi et al. for iminosugar compounds (Misumi et al., 2021). Cells (approximately […]) were plated in wells of a 96-well plate with Dulbecco's modified Eagle medium (DMEM) and 10% fetal bovine serum. The cells were inoculated 24 hrs later with 18f-NLuc virus (approximately 10^6-10^7 genome equivalents) in medium containing increasing concentrations of the compounds of interest. The cells were re-incubated for 48 hrs at 37° C. in a 5% CO2 environment, then lysed in 1× passive lysis buffer (Promega) for 15 min at room temperature. Cell lysates were transferred to an opaque white 96-well plate (Corning, 3912) and NLuc assay carried out using the NLuc GLOW Assay kit (Nanolight Technology). Luminescence was measured using a Biotek Synergy II multi-mode plate reader (BioTek Instruments). The percent inhibition of replication was calculated by determining the reduction in NLuc activity from that expressed by infected cells incubated in parallel in the absence of compound, and 50% inhibitory endpoints estimated by fitting the data to a four parameter variable slope logistic curve using Prism 9 for Mac OS software (GraphPad). Cell toxicity of the compounds was assessed using the WST-1 Cell Proliferation Reagent (Sigma-Aldrich) at the end of the treatment period in parallel cultures of uninfected cells, with WST-1 reagent added to cultures for 1 hr prior to harvest and O.D. reading.
as §1, with “Additional exemplary compounds of the present invention are evaluated for anti-HAV activity in accordance with certain assays described hereinabove. As discussed above, assays” for “Assays”, “10^6-107” for “10^6-10^7”

Work on `COc1cc2c(cc1OCCCCCCC(=O)O)C[C@@H](C(C)C)n1cc(C(=O)O)c(=O)cc1-2` [Example 6, (S)-9-((6-carboxyhexyl)oxy)-6-isopropyl-10-methoxy-2-oxo-6,7-dihydro-2H-pyrido[2,1-a]isoquinoline-3-carboxylic acid] yielded a CC50 at 48 h [1] of over 10000 nM and an EC50 [2] of 278 nM.
